Toxic doses and inconclusive results are not listed. Rule as the data show it: active = T/C of 150% or more; inactive = T/C below 125%.
System: L1210 leukemia ip in BDF1 mice, survival T/C
Experiment: NCI In Vivo Anticancer Drug Screen. Data for tumor model L1210 Leukemia (intraperitoneal) in B6D2F1 (BDF1) mice
Details: endpoint: mean survival time, higher = longer survival
Method in brief: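 Transplantable tumor model; survival measured in treated vs vehicle control mice. Value = treated/control.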

[1] = dose: 50.0 mg/kg/injection, schedule: Q01DX001 (ip), vehicle: saline
[2] = dose: 200.0 mg/kg/injection, schedule: Q01DX001 (ip), vehicle: saline

Measured: T/C

C=C1CCOC2(C(O)C(C)(O)CO)NC(=O)C1(O)NC2=O (configuration not stated)
inactive: dose: 100.0 mg/kg/injection, schedule: Q04DX002 (ip), vehicle: saline 96 % of control | dose: 200.0 mg/kg/injection, schedule: Q04DX002 (ip), vehicle: saline 107 % of control | dose: 400.0 mg/kg/injection, schedule: Q04DX002 (ip), vehicle: saline 104 % of control

O=P(NC12CC3CC(CC(C3)C1)C2)(Oc1ccccc1Cl)Oc1ccccc1Cl
inactive: dose: 100.0 mg/kg/injection, schedule: Q01DX009 (ip), vehicle: Klucel (hydroxypropylcellulose) (HPC) 101 % of control | dose: 200.0 mg/kg/injection, schedule: Q01DX009 (ip), vehicle: Klucel (hydroxypropylcellulose) (HPC) 101 % of control | dose: 400.0 mg/kg/injection, schedule: Q01DX009 (ip), vehicle: Klucel (hydroxypropylcellulose) (HPC) 95 % of control

O=S(=O)(O)CCCCO
inactive: dose: 100.0 mg/kg/injection, schedule: Q01DX009 (ip), vehicle: saline 98 % of control | dose: 100.0 mg/kg/injection, schedule: Q04DX003 (ip), vehicle: saline 95 % of control | dose: 200.0 mg/kg/injection, schedule: Q01DX009 (ip), vehicle: saline 95 % of control | dose: 200.0 mg/kg/injection, schedule: Q04DX003 (ip), vehicle: saline 100 % of control | dose: 400.0 mg/kg/injection, schedule: Q01DX009 (ip), vehicle: saline 95 % of control | dose: 400.0 mg/kg/injection, schedule: Q04DX003 (ip), vehicle: saline 97 % of control

CSCCSc1ncnc2nc[nH]c12
inactive: dose: 100.0 mg/kg/injection, schedule: Q04DX003 (ip), vehicle: saline with Tween-80 107 % of control | dose: 200.0 mg/kg/injection, schedule: Q04DX003 (ip), vehicle: saline with Tween-80 102 % of control | dose: 400.0 mg/kg/injection, schedule: Q04DX003 (ip), vehicle: saline with Tween-80 101 % of control

Nc1nc(N)c(N=Cc2ccc(N(CCCl)CCCl)cc2)c(N)n1
inactive: [1] 100 % of control | dose: 100.0 mg/kg/injection, schedule: Q01DX001 (ip), vehicle: carboxymethylcellulose (CMC) 103 % of control | [2] 103 % of control | dose: 400.0 mg/kg/injection, schedule: Q01DX001 (ip), vehicle: carboxymethylcellulose (CMC) 100 % of control

C1=CC(=P(c2ccccc2)(c2ccccc2)c2ccccc2)C=C1
inactive: dose: 30.0 mg/kg/injection, schedule: Q01DX015 (ip), vehicle: saline 95 % of control | [1] 92 % of control | dose: 60.0 mg/kg/injection, schedule: Q01DX015 (ip), vehicle: saline 89 % of control | dose: 100.0 mg/kg/injection, schedule: Q01DX001 (ip), vehicle: saline 97 % of control | dose: 120.0 mg/kg/injection, schedule: Q01DX015 (ip), vehicle: saline 91 % of control | [2] 98 % of control | dose: 240.0 mg/kg/injection, schedule: Q01DX015 (ip), vehicle: saline 91 % of control | dose: 400.0 mg/kg/injection, schedule: Q01DX001 (ip), vehicle: saline 97 % of control

CC(C)C1=CC2=CCC3C(C)(CN)CCCC3(C)C2CC1CCN (configuration not stated)
inactive: dose: 1.25 mg/kg/injection, schedule: Q04DX003 (ip), vehicle: saline 100 % of control | dose: 2.5 mg/kg/injection, schedule: Q04DX003 (ip), vehicle: saline 108 % of control | dose: 5.0 mg/kg/injection, schedule: Q04DX003 (ip), vehicle: saline with Tween-80 96 % of control | dose: 5.0 mg/kg/injection, schedule: Q04DX003 (ip), vehicle: saline 101 % of control

c1ccc(N=NNc2ccccc2)cc1
inactive: dose: 6.25 mg/kg/injection, schedule: Q01DX009 (ip), vehicle: saline with Tween-80 100 % of control | dose: 12.5 mg/kg/injection, schedule: Q01DX009 (ip), vehicle: saline with Tween-80 94 % of control | dose: 25.0 mg/kg/injection, schedule: Q01DX009 (ip), vehicle: saline with Tween-80 98 % of control

O=[N+]([O-])c1ccc(N/N=C2\CCCCCC2c2ccccc2)c([N+](=O)[O-])c1 (configuration not stated)
inactive: dose: 100.0 mg/kg/injection, schedule: Q04DX002 (ip), vehicle: Klucel (hydroxypropylcellulose) (HPC) 100 % of control | dose: 200.0 mg/kg/injection, schedule: Q04DX002 (ip), vehicle: Klucel (hydroxypropylcellulose) (HPC) 96 % of control | dose: 400.0 mg/kg/injection, schedule: Q04DX002 (ip), vehicle: Klucel (hydroxypropylcellulose) (HPC) 100 % of control

From PubChem BioAssay AID248 (DTP/NCI, 2004)
